Results on 22 molecules are retold here after patent publication US7998989B2, “2-Imino-1,3-thiazoline-based compounds and T-type calcium channel inhibitors containing the same” (Korea Institute of Science and Technology, priority 2007, dated 2011).

Series [1] deals with T1, α1G T-type calcium channel (Homo sapiens, UniProt O43497).
T1 construct: host or cells: HEK293
The series can be described thus: Assay for % inhibiting activity against T-type calcium channel using FDSS6000 (fluo-3 calcium imaging, KCl activation). Format: cell-based. Conditions: HEK293, 10 μM; HEK293 cells stably expressing α1G T-type calcium channel and Kir2.1; compounds of the examples; read-out: FDSS (% inhibition)/10uM. The protocol:
In the present invention, in order to examine an efficient inhibitor against the T-type calcium channel, a primary assay for T-type calcium channel inhibiting activity was conducted by a high-efficient assay using FDSS6000, wherein mammal HEK293 cell lines (originated from human kidney carcinoma cells) that specifically express α1G of the T-type calcium channel was used for primary assay. Through the primary assay, compounds that show meaningful inhibition effects were selected. The selected compounds were used in a second assay for T-type calcium channel inhibiting activity using an electrophysiological whole cell patch clamp method, wherein mammal HEK293 cell lines (originated from human kidney carcinoma cells) that specifically express α1G of the T-type calcium channel was used for the second assay. Mibefradil, which had been developed as a T-type calcium channel inhibitor, was used as a reference.
At 12-24 hours before being used for this assay, cells of HEK293 cell line (α1G cell line: KCTC 10519BP, Korean Collection for Type Cultures), which stably express α1G T-type calcium channel and Kir2.1, were sub-cultured in a poly-L-lysine treated 96-well plate with the density of 4×10^4 per well using a 96-well cell dispenser (Titertek). On the day of assay, the 96-well plate to which the cells were attached was washed three times with HEPES buffer solution (150 mM of NaCl, 5 mM of KCl, 1 mM of MgCl2, 2 mM of CaCl2, 10 mM of HEPES, 10 mM of glucose; pH 7.4) using a 96-well plate automatic washing device (Bio Tek), then reacted with HEPES buffer solution containing 5 μM fluo-3/AM and 0.001% Pluronic F-127 at room temperature for 1 hour, to label with fluorescent dye, and then further washed two times with HEPES buffer solution.
Thereafter, at 10 minutes before the measurement using device FDSS6000, washing with HEPES buffer solution containing 10 mM CaCl2 was conducted once more, and the final volume was adjusted to 81 μl. Besides the above 96-well plate containing the cells, two additional drug 96-well plates were provided, wherein the 96-well plates contained an inhibiting drug and KCl (final concentration: 75 mM) for activating the T-type calcium channel, respectively. Since most of cell-based HTS devices are equipped with a liquid application system for injection of drug, but have no liquid sucking system, the inhibiting drug to be tested and KCl were respectively provided at a five-times higher concentration in 10 mM CaCl2 HEPES buffer solution at the amount of 27 μl, diluted by five-times at the final cell plate volume of 135 μl, and then used in this test. The concrete method of measurement using FDSS6000 was as follows. After recording the reference value of 20 seconds, the change of intracellular Ca^2+ concentration that was induced by treatment of the inhibiting drug to be tested for 75 seconds followed by administration of KCl was measured, wherein the percentage (%) inhibition effect of the test drug, through estimating the area of ratio value of 340/380 in the control without treatment of the test drug, was 100%. As a reference drug, 10 μM mibefradil was used.
For accurate calcium imaging, the light source of 4 xenon lamps in FDSS6000 were radiated to selectively expose the cells to the excitation wavelength (340 nm and 380 nm) by a computer-controlled filter wheel. Data was obtained at intervals of 1.23 seconds. The emitter fluorescence light inflowed through a long-pass filter was obtained as an average 340/380 ratio value for each well in the 96-wells by using a CCD camera and a digital fluorescence analyzer in FDSS6000. All image data and analyses were obtained by using a FDSS6000-exclusive program from Hamamatsu Photonics.
The obtained results are shown in Table 2 (the results from the compounds according to the examples of the present invention) and Table 3 (the results from the compounds according to the comparative example where R6 is a phenyl group) [FDSS (% inhibition) 10 μM].

T1 sequence (O43497 whole entry): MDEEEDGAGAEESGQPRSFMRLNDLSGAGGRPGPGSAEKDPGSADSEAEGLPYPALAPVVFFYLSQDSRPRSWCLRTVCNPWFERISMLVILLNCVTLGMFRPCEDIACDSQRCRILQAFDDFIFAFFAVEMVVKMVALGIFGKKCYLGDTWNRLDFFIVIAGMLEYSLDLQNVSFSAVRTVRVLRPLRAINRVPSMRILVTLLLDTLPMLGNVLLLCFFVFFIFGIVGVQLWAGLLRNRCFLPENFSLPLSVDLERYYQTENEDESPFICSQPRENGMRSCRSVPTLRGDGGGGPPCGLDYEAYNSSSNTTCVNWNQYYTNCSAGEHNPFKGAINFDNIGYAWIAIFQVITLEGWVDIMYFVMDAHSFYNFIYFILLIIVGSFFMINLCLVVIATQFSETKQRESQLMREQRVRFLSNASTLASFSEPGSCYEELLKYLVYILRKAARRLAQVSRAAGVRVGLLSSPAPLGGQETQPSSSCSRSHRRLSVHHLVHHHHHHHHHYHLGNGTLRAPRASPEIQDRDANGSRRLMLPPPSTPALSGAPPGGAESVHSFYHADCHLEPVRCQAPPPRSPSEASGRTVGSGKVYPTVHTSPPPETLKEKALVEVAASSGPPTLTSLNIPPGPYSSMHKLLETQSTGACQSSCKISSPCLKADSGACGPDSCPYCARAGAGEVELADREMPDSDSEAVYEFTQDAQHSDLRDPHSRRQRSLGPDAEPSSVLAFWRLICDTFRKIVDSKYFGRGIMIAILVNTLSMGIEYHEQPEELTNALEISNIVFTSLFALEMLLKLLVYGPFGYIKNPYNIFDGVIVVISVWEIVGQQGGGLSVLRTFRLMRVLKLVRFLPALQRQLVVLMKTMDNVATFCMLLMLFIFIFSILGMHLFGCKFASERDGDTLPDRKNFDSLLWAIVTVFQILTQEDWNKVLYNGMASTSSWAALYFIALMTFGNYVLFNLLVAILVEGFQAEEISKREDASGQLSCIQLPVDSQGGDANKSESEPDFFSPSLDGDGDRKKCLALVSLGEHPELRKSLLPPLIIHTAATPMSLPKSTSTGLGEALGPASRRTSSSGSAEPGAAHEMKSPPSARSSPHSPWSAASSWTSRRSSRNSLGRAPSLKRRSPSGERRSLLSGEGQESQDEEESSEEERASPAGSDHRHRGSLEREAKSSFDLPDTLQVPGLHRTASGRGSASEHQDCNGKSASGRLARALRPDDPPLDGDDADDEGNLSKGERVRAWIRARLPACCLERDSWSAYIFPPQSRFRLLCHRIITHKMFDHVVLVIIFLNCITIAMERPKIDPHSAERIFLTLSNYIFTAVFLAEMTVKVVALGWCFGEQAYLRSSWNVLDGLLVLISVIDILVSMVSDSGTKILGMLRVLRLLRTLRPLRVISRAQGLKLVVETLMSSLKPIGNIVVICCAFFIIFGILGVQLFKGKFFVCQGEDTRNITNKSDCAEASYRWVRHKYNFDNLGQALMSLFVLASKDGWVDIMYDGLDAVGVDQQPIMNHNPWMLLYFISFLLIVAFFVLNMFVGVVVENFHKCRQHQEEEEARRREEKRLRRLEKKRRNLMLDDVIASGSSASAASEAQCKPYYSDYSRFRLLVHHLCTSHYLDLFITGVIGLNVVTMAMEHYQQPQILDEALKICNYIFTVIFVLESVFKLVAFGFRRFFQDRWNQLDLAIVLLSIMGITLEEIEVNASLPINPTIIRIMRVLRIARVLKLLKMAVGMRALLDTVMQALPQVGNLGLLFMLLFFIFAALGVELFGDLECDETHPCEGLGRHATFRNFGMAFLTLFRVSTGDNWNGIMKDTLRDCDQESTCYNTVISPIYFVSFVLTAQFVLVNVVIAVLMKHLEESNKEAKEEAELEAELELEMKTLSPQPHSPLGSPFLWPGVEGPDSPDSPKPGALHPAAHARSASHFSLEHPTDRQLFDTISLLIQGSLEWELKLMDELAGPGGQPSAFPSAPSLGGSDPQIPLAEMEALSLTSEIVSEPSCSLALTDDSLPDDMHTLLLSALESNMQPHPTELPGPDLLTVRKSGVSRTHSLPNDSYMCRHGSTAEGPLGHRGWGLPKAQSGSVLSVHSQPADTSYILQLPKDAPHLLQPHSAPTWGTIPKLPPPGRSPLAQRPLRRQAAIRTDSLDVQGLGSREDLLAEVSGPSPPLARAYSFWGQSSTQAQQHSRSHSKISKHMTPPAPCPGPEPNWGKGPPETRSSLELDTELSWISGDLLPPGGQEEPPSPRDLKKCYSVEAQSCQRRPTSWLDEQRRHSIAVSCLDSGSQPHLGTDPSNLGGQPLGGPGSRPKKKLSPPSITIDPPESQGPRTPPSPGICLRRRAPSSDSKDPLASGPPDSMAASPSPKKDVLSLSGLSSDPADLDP

A word on the melting point: it is the temperature of the solid-liquid transition. On to `CC(C)N1C(=NC23CC4CC(CC(C4)C2)C3)SCC1CC(=O)Nc1ccc(Oc2ccccc2)cc1.Cl` (centres unmarked) [KHG24833, [2-(1-adamantylimino)-3-isopropyl-1,3-thiazolidine-4-yl]-N-(4-phenoxyphenyl)-acetamide hydrochloride], for which the melting point worked out at 164 °C. Moreover, the inhibition at 10 µM in series [1] was 37%.
The matching figures for `CN1C(=NCCc2ccccc2)SCC1CC(=O)Nc1cc([N+](=O)[O-])ccc1F.Cl` (centres unmarked) [KHG24232, (2-phenethylimino-3-methyl-1,3-thiazolidine-4-yl)-N-(2-fluoro-5-nitrophenyl)-acetamide hydrochloride]: 196.4 °C and 33.7%.
Turning to `CC1SC(=NC2CCCCC2)N(C)C1CC(=O)Nc1ccc(F)cc1.Cl` (centres unmarked) [KHG24525, (2-cyclohexylimino-3,5-dimethyl-1,3-thiazolidine-4-yl)-N-(4-fluorophenyl)-acetamide hydrochloride], the melting point was 267 to 269 °C. In addition, the inhibition at 10 µM in series [1] worked out at 31.5%.
The matching figures for `CCc1ccc(NC(=O)CC2CSC(=NC3CCCCC3)N2C2CC2)cc1.Cl` (centres unmarked) [KHG24272, [2-cyclohexylimino-3-cyclopropyl-1,3-thiazolidine-4-yl]-N-(4-ethylphenyl)-acetamide hydrochloride]: 194.2 °C and 37.6%.
In the same order, the values of `CC1SC(=NC2CCCC2)N(C)C1CC(=O)Nc1ccc(Cl)cc1.Cl` (centres unmarked) [KHG24657, (2-cyclopentylimino-3,5-dimethyl-1,3-thiazolidine-4-yl)-N-(4-chlorophenyl)-acetamide hydrochloride] are 201 to 203 °C and 48%.
For the molecule `CC(C)N1C(=NC23CC4CC(CC(C4)C2)C3)SCC1CC(=O)Nc1cc(Cl)ccc1F.Cl` (centres unmarked) [KHG24835, [2-(1-adamantylimino)-3-isopropyl-1,3-thiazolidine-4-yl]-N-(5-chloro-2-fluorophenyl)-acetamide hydrochloride], the melting point was 116 °C. The inhibition at 10 µM in series [1] was 55.2%.
For `Cl.O=C(CC1CSC(=NC2CCCCC2)N1Cc1ccccc1)Nc1ccc(F)cc1` (centres unmarked) [KHG24305, (2-cyclohexylimino-3-benzyl-1,3-thiazolidine-4-yl)-N-(4-fluorophenyl)-acetamide hydrochloride], the melting point came out at 214.1 °C. The inhibition at 10 µM in series [1] turned out to be 58.9%.
`CCCN1C(=NC2CCCCC2)SCC1CC(=O)Nc1ccc(Oc2ccccc2)cc1.Cl` (centres unmarked) [KHG24290, [2-cyclohexylimino-3-(n-propyl)-1,3-thiazolidine-4-yl]-N-(4-phenoxyphenyl)-acetamide hydrochloride] displayed a melting point of 230.3 °C. In series [1], the inhibition at 10 µM came out at 62.2%.
Consider `CC1SC(=NC2CCCCCC2)N(C)C1CC(=O)Nc1ccc(Cl)cc1.Cl` (centres unmarked) [KHG24643, (2-cycloheptylimino-3,5-dimethyl-1,3-thiazolidine-4-yl)-N-(4-chlorophenyl)-acetamide hydrochloride], for which the melting point was in the range of 240 to 242 °C. The inhibition at 10 µM in series [1] came to 65.4%.
As for `CCN1C(=NC2CCCCC2)SCC1CC(=O)Nc1cc(Cl)cc(Cl)c1.Cl` (centres unmarked) [KHG24414, (2-cyclohexylimino-3-ethyl-1,3-thiazolidine-4-yl)-N-(3,5-dichlorophenyl)-acetamide hydrochloride], the melting point was 100.5 °C. In series [1], the inhibition at 10 µM is 61%.
`CCCCN1C(=NC2CCCCC2)SCC1CC(=O)Nc1ccc(F)cc1.Cl` (centres unmarked) [KHG24284, [2-cyclohexylimino-3-(n-butyl)-1,3-thiazolidine-4-yl]-N-(4-fluorophenyl)-acetamide hydrochloride] gave a melting point of 203.5 °C. The inhibition at 10 µM in series [1] was 44.6%.
Regarding `CCCCc1ccc(NC(=O)CC2CSC(=NC3CCCCC3)N2Cc2ccccc2)cc1.Cl` (centres unmarked) [KHG24406, (2-cyclohexylimino-3-benzyl-1,3-thiazolidine-4-yl)-N-(4-n-butylphenyl)-acetamide hydrochloride], the melting point came out at 156.2 °C. The inhibition at 10 µM in series [1] worked out at 34.4%.
`CCCN1C(=NC23CC4CC(CC(C4)C2)C3)SCC1CC(=O)Nc1ccc(Oc2ccccc2)cc1.Cl` (centres unmarked) [KHG24815, [2-(1-adamantylimino)-3-n-propyl-1,3-thiazolidine-4-yl]-N-(4-phenoxyphenyl)-acetamide hydrochloride]: the melting point was found to be 135 °C. The inhibition at 10 µM in series [1] came out at 32.7%.
In the case of `CCCCN1C(=NC23CC4CC(CC(C4)C2)C3)SCC1CC(=O)Nc1ccc(C(C)C)cc1.Cl` (centres unmarked) [KHG24795, [2-(1-adamantylimino)-3-(n-butyl)-1,3-thiazolidine-4-yl]-N-(4-isopropylphenyl)-acetamide hydrochloride], the melting point was 244 °C. Besides, the inhibition at 10 µM in series [1] is 33.7%.
In the same order, the values of `Cc1ccc(NC(=O)CC2CSC(=NC34CC5CC(CC(C5)C3)C4)N2C(C)C)cc1.Cl` (centres unmarked) [KHG24831, [2-(1-adamantylimino)-3-isopropyl-1,3-thiazolidine-4-yl]-N-(4-methylphenyl)-acetamide hydrochloride] are 220 °C and 57%.
The matching figures for `CC1SC(=NC2CCCCCC2)N(C)C1CC(=O)Nc1cc([N+](=O)[O-])ccc1F.Cl` (centres unmarked) [KHG24645, (2-cycloheptylimino-3,5-dimethyl-1,3-thiazolidine-4-yl)-N-(2-fluoro-5-nitrophenyl)-acetamide hydrochloride]: 248 to 251 °C and 48.4%.
In the case of `CCCN1C(=NC23CC4CC(CC(C4)C2)C3)SCC1CC(=O)Nc1ccc(C(C)C)cc1.Cl` (centres unmarked) [KHG24807, [2-(1-adamantylimino)-3-n-propyl-1,3-thiazolidine-4-yl]-N-(4-isopropylphenyl)-acetamide hydrochloride], the melting point was found to be 155 °C. In addition, the inhibition at 10 µM in series [1] stood at 59.7%.
`CCCCN1C(=NC2CCCCC2)SCC1CC(=O)Nc1ccc(C(C)C)cc1.Cl` (centres unmarked) [KHG24283, [2-cyclohexylimino-3-(n-butyl)-1,3-thiazolidine-4-yl]-N-(4-isopropylphenyl)-acetamide hydrochloride] showed a melting point of 215.6 °C. The inhibition at 10 µM in series [1] amounted to 51.2%.
In the case of `CN1C(=NCCc2ccccc2)SCC1CC(=O)Nc1cc(C(F)(F)F)cc(C(F)(F)F)c1.Cl` (centres unmarked) [KHG24216, (2-phenethylimino-3-methyl-1,3-thiazolidine-4-yl)-N-(3,5-ditrifluoromethylphenyl)-acetamide hydrochloride], the melting point turned out to be 221.3 °C. For the same molecule, the inhibition at 10 µM in series [1] amounted to 36%.
`CCCN1C(=NC23CC4CC(CC(C4)C2)C3)SCC1CC(=O)Nc1cc(Cl)ccc1F.Cl` (centres unmarked) [KHG24817, [2-(1-adamantylimino)-3-n-propyl-1,3-thiazolidine-4-yl]-N-(5-chloro-2-fluorophenyl)-acetamide hydrochloride] showed a melting point of 130 °C. Also, the inhibition at 10 µM in series [1] amounted to 60.5%.
For the molecule `CCCN1C(=NC2CCCCC2)SCC1CC(=O)Nc1ccc(C)cc1.Cl` (centres unmarked) [KHG24297, [2-cyclohexylimino-3-(n-propyl)-1,3-thiazolidine-4-yl]-N-(4-methylphenyl)-acetamide hydrochloride], the melting point was 188.9 °C. Besides, the inhibition at 10 µM in series [1] was found to be 51%.
In turn, `CCCCN1C(=NC23CC4CC(CC(C4)C2)C3)SCC1CC(=O)Nc1ccc(Cl)cc1F.Cl` (centres unmarked) [KHG24783, [2-(1-adamantylimino)-3-(n-butyl)-1,3-thiazolidine-4-yl]-N-(4-chloro-2-fluorophenyl)-acetamide hydrochloride] returned a melting point of 161 °C. Moreover, the inhibition at 10 µM in series [1] was 54.4%.
